# Laboratory results taken from patent publication US11939314B2, “Quinolin-2-one derivatives” (MERCK PATENT GMBH, priority 2016, dated 2024).
# Molecular target: T1, c-Kit(V654A) (Homo sapiens, UniProt P10721, V654A)
# T1 construct: amino acids 544-end containing the V654A mutation; GST (N)
# Test: c-Kit(V654A) assay
# Type: biochemical
# Settings: recombinant human c-Kit aa 544-end, 200 μM ATP, 1.4E-06 means 1.4×10^−6, read-out: Inhibition (IC50) of c-KIT (V654A)
# Description: c-Kit(V654A) (N-terminal GST-tagged, recombinant human c-Kit, amino acids 544-end containing the V654A mutation) is incubated with 8 mM MOPS pH 7.0, 0.2 mM EDTA, 250 μM GGMEDIYEFMGGKKK, 10 mM MgAcetate and [gamma-33P-ATP] (specific activity approx. 500 cpm/pmol, concentration 200 μM). The reaction is initiated by the addition of the MgATP mix. After incubation for 40 minutes at room temperature, the reaction is stopped by the addition of 3% phosphoric acid solution. 10 μL of the reaction is then spotted onto a P30 filtermat and washed three times for 5 minutes in 75 mM phosphoric acid and once in methanol prior to drying and scintillation counting.
# T1 sequence (P10721 544-976 V654A): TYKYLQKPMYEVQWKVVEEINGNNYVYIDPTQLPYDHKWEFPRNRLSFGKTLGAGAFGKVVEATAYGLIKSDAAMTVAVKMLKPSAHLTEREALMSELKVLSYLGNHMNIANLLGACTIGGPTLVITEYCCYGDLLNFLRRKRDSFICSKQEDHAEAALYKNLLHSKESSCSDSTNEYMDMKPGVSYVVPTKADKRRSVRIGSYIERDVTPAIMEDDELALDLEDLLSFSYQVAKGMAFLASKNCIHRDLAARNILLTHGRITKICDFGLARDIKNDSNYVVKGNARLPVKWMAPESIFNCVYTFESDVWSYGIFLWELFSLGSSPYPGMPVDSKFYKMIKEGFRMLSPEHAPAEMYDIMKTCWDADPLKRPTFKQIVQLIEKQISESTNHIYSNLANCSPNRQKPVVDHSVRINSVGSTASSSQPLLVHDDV
row,SMILES,IC50
1,"O=c1[nH]c2ncccc2cc1-c1cn(-c2ccccc2)nn1 [A6, 3-(1-phenyl-1H-[1,2,3]triazol-4-yl)-1H-[1,8]naphthyridin-2-one]",430 nM
2,"O=c1[nH]c2ncccc2cc1-c1cn(-c2ccc(CO)cc2)nn1 [A7, 3-[1-(4-hydroxymethyl-phenyl)-1H-[1,2,3]triazol-4-yl]-1H-[1,8]naphthyridin-2-one]",490 nM
3,"Cc1c(-c2cn(-c3ccc(C(=O)N4CCOCC4)cc3)nn2)c(=O)[nH]c2ccccc12 [A185, 4-methyl-3-{1-[4-(morpholine-4-carbonyl)-phenyl]-1H-[1,2,3]triazol-4-yl}-1H-quinolin-2-one]",510 nM
4,"CN1CCN(C(=O)c2ccc(-n3cc(-c4cc5cc(F)c(F)cc5[nH]c4=O)cn3)cc2)CC1 [A304, 6,7-difluoro-3-{1-[4-(4-methyl-piperazine-1-carbonyl)-phenyl]-1H-pyrazol-4-yl}-1H-quinolin-2-one]",16 nM
5,"CN1CCN(C(=O)c2ccc(-n3cc(-c4cc5cc(Cl)ccc5[nH]c4=O)cn3)cc2)CC1 [A305, 6-chloro-3-{1-[4-(4-methyl-piperazine-1-carbonyl)-phenyl]-1H-pyrazol-4-yl}-1H-quinolin-2-one]",7.7 nM
6,"CO[C@H](C)C(=O)N(C)c1ccc(-n2cc(-c3cc4cc(F)ccc4[nH]c3=O)nn2)cc1 [A346, (R)—N-{4-[4-(6-fluoro-2-oxo-1,2-dihydro-quinolin-3-yl)-[1,2,3]triazol-1-yl]-phenyl}-2-methoxy-N-methyl-propionamide]",16 nM
7,"CO[C@@H]1CN[C@H](C(=O)N(C)c2ccc(-n3cc(-c4cc5cc(F)ccc5[nH]c4=O)nn3)cc2)C1 [A347, (2S,4S)-4-methoxy-pyrrolidine-2-carboxylic acid {4-[4-(6-fluoro-2-oxo-1,2-dihydro-quinolin-3-yl)-[1,2,3]triazol-1-yl]-phenyl}-methyl-amide]",26 nM
8,"CO[C@@H](C)C(=O)N(C)c1ccc(-n2cc(-c3cc4cc(F)ccc4[nH]c3=O)nn2)cc1 [A348, (S)—N-{4-[4-(6-fluoro-2-oxo-1,2-dihydro-quinolin-3-yl)-[1,2,3]triazol-1-yl]-phenyl}-2-methoxy-N-methyl-propionamide]",16 nM
9,"CO[C@H]1CCN(C(=O)c2cc(-n3cc(-c4cc5cc(F)ccc5[nH]c4=O)nn3)cs2)C1 [A350, 6-fluoro-3-{1-[5-((S)-3-methoxy-pyrrolidine-1-carbonyl)-thiophen-3-yl]-1H-[1,2,3]triazol-4-yl}-1H-quinolin-2-one]",16 nM
10,"CO[C@@H]1CCN(C(=O)c2cc(-n3cc(-c4cc5cc(F)ccc5[nH]c4=O)nn3)cs2)C1 [A351, 6-fluoro-3-{1-[5-((R)-3-methoxy-pyrrolidine-1-carbonyl)-thiophen-3-yl]-1H-[1,2,3]triazol-4-yl}-1H-quinolin-2-one]",14 nM
11,"CO[C@@H]1CCN(S(=O)(=O)c2ccc(-n3cc(-c4cc5cc(Cl)ccc5[nH]c4=O)nn3)cc2)C1 [A359, 6-chloro-3-{1-[4-((R)-3-methoxy-pyrrolidine-1-sulfonyl)-phenyl]-1H-[1,2,3]triazol-4-yl}-1H-quinolin-2-one]",13 nM
12,"CO[C@H]1CCN(S(=O)(=O)c2ccc(-n3cc(-c4cc5cc(Cl)ccc5[nH]c4=O)nn3)cc2)C1 [A361, 6-chloro-3-{1-[4-((S)-3-methoxy-pyrrolidine-1-sulfonyl)-phenyl]-1H-[1,2,3]triazol-4-yl}-1H-quinolin-2-one]",11 nM
13,"CN1CC[C@H](Oc2ccc(-n3cc(-c4cc5cc(F)c(F)cc5[nH]c4=O)nn3)cc2)C1 [A372, 6,7-difluoro-3-{1-[4-((S)-1-methyl-pyrrolidin-3-yloxy)-phenyl]-1H-[1,2,3]triazol-4-yl}-1H-quinolin-2-one]",21 nM
14,"CN1CC[C@@H](Oc2ccc(-n3cc(-c4cc5cc(F)c(F)cc5[nH]c4=O)nn3)cc2)C1 [A373, 6,7-difluoro-3-{1-[4-((R)-1-methyl-pyrrolidin-3-yloxy)-phenyl]-1H-[1,2,3]triazol-4-yl}-1H-quinolin-2-one]",15 nM
15,"CN1CCC(Oc2ccc(-n3cc(-c4cc5cc(Cl)ccc5[nH]c4=O)nn3)cc2)CC1 [A376, 6-chloro-3-{1-[4-(1-methyl-piperidin-4-yloxy)-phenyl]-1H-[1,2,3]triazol-4-yl}-1H-quinolin-2-one]",4.9 nM

# Further lines, results first:
row,IC50,SMILES
1,16 nM,"CS(=O)(=O)[C@@H]1CCN(C(=O)c2ccc(-n3cc(-c4cc5cc(F)ccc5[nH]c4=O)nn3)cc2)C1 [A282, 6-fluoro-3-{1-[4-((R)-3-methanesulfonyl-pyrrolidine-1-carbonyl)-phenyl]-1H-[1,2,3]triazol-4-yl}-1H-quinolin-2-one]"
2,19 nM,"CS(=O)(=O)[C@H]1CCN(C(=O)c2ccc(-n3cc(-c4cc5cc(F)ccc5[nH]c4=O)nn3)cc2)C1 [A283, 6-fluoro-3-{1-[4-((S)-3-methanesulfonyl-pyrrolidine-1-carbonyl)-phenyl]-1H-[1,2,3]triazol-4-yl}-1H-quinolin-2-one]"
3,17 nM,"CS(=O)(=O)CC1CCN(C(=O)c2ccc(-n3cc(-c4cc5cc(F)ccc5[nH]c4=O)nn3)cc2)C1 (stereo not drawn) [A284, 6-fluoro-3-{1-[4-(3-methanesulfonylmethyl-pyrrolidine-1-carbonyl)-phenyl]-1H-[1,2,3]triazol-4-yl}-1H-quinolin-2-one]"
4,5.6 nM,"Cn1cc(C2CCCN2C(=O)c2ccc(-n3cc(-c4cc5cc(F)ccc5[nH]c4=O)nn3)cc2)cn1 (stereo not drawn) [A285, 6-fluoro-3-(1-{4-[2-(1-methyl-1H-pyrazol-4-yl)-pyrrolidine-1-carbonyl]-phenyl}-1H-[1,2,3]triazol-4-yl)-1H-quinolin-2-one]"
5,5.1 nM,"O=C(c1ccc(-n2cc(-c3cc4cc(F)ccc4[nH]c3=O)nn2)cc1)N1CCCC1c1cccnc1 (stereo not drawn) [A286, 6-fluoro-3-{1-[4-(2-pyridin-3-yl-pyrrolidine-1-carbonyl)-phenyl]-1H-[1,2,3]triazol-4-yl}-1H-quinolin-2-one]"
6,25 nM,"CN1CCN(CC2CCCN2C(=O)c2ccc(-n3cc(-c4cc5cc(F)ccc5[nH]c4=O)nn3)cc2)CC1 (stereo not drawn) [A287, 6-fluoro-3-(1-{4-[2-(4-methyl-piperazin-1-ylmethyl)-pyrrolidine-1-carbonyl]-phenyl}-1H-[1,2,3]triazol-4-yl)-1H-quinolin-2-one]"
7,6.5 nM,"CC1CCCN1C(=O)c1ccc(-n2cc(-c3cc4cc(F)ccc4[nH]c3=O)nn2)cc1 (stereo not drawn) [A288, 6-fluoro-3-{1-[4-(2-methyl-pyrrolidine-1-carbonyl)-phenyl]-1H-[1,2,3]triazol-4-yl}-1H-quinolin-2-one]"
8,25 nM,"CN1CC2(CCN(C(=O)c3ccc(-n4cc(-c5cc6cc(F)ccc6[nH]c5=O)nn4)cc3)C2)C1 [A289, 6-fluoro-3-{1-[4-(2-methyl-2,6-diaza-spiro[3.4]octane-6-carbonyl)-phenyl]-1H-[1,2,3]triazol-4-yl}-1H-quinolin-2-one]"
9,14 nM,"CN1CC2(CCN(C(=O)c3ccc(-n4cc(-c5cc6cc(Cl)ccc6[nH]c5=O)nn4)cc3)C2)C1 [A290, 6-chloro-3-{1-[4-(2-methyl-2,6-diaza-spiro[3.4]octane-6-carbonyl)-phenyl]-1H-[1,2,3]triazol-4-yl}-1H-quinolin-2-one]"
10,7.5 nM,"CN1C[C@H]2CCN(C(=O)c3ccc(-n4cc(-c5cc6cc(F)ccc6[nH]c5=O)nn4)cc3)[C@H]2C1 [A291, 6-fluoro-3-{1-[4-((3aR,6aR)-5-methyl-hexahydro-pyrrolo[3,4-b]pyrrole-1-carbonyl)-phenyl]-1H-[1,2,3]triazol-4-yl}-1H-quinolin-2-one]"
11,9.2 nM,"CN(C)C1CN(C(=O)c2ccc(-n3cc(-c4cc5cc(F)ccc5[nH]c4=O)nn3)cc2)CC1(F)F (stereo not drawn) [A339, 3-{1-[4-(4-dimethylamino-3,3-difluoro-pyrrolidine-1-carbonyl)-phenyl]-1H-[1,2,3]triazol-4-yl}-6-fluoro-1H-quinolin-2-one]"
12,51 nM,"CN1CCC(C(=O)N(C)c2ccc(-n3cc(-c4cc5cc(F)ccc5[nH]c4=O)nn3)cc2)CC1 [A349, 1-methyl-piperidine-4-carboxylic acid {4-[4-(6-fluoro-2-oxo-1,2-dihydro-quinolin-3-yl)-[1,2,3]triazol-1-yl]-phenyl}-methyl-amide]"
13,19 nM,"CO[C@@H]1CCN(S(=O)(=O)c2ccc(-n3cc(-c4cc5cc(F)ccc5[nH]c4=O)nn3)cc2)C1 [A358, 6-fluoro-3-{1-[4-((R)-3-methoxy-pyrrolidine-1-sulfonyl)-phenyl]-1H-[1,2,3]triazol-4-yl}-1H-quinolin-2-one]"
14,22 nM,"CO[C@H]1CCN(S(=O)(=O)c2ccc(-n3cc(-c4cc5cc(F)ccc5[nH]c4=O)nn3)cc2)C1 [A360, 6-fluoro-3-{1-[4-((S)-3-methoxy-pyrrolidine-1-sulfonyl)-phenyl]-1H-[1,2,3]triazol-4-yl}-1H-quinolin-2-one]"
15,16 nM,"CO[C@@H]1CCC[C@H]1Oc1ccc(-n2cc(-c3cc4cc(F)ccc4[nH]c3=O)nn2)cc1 [A362, 6-fluoro-3-{1-[4-((1S,25)-2-methoxy-cyclopentyloxy)-phenyl]-1H-[1,2,3]triazol-4-yl}-1H-quinolin-2-one]"
16,21 nM,"O=c1[nH]c2ccc(F)cc2cc1-c1cn(-c2ccc(OC3CCCC3)cc2)nn1 [A364, 3-[1-(4-cyclopentyloxy-phenyl)-1H-[1,2,3]triazol-4-yl]-6-fluoro-1H-quinolin-2-one]"
17,17 nM,"CN1CCC(Cc2ccc(-n3cc(-c4cc5cc(Cl)ccc5[nH]c4=O)nn3)cc2)CC1 [A374, 6-chloro-3-{1-[4-(1-methyl-piperidin-4-ylmethyl)-phenyl]-1H-[1,2,3]triazol-4-yl}-1H-quinolin-2-one]"
18,9.5 nM,"CN1CCC(Oc2ccc(-n3cc(-c4cc5cc(F)ccc5[nH]c4=O)nn3)cc2)CC1 [A375, 6-fluoro-3-{1-[4-(1-methyl-piperidin-4-yloxy)-phenyl]-1H-[1,2,3]triazol-4-yl}-1H-quinolin-2-one]"
